From US20060100175A1, “Novel therapeutic use of low molecular weight heparins” (Aventis Pharma S.A., priority 1998, published 2006)

Test system: motoneurons plated on astrocyte monolayers
Experiment: Potentiation effect on the stimulation of the trophic motoneuron activity (SIN-1 treated astrocyte monolayers)
Type: cell-based, rat
Conditions: SIN-1 2 mM, 1 hour on astrocyte monolayers
Method: The cultures enriched in motoneurons are prepared using the centrifugation method described by R. L. Schnaar and A. E. Schaffner, J. Neurosci., 1, 204-217 (1981) and modified by W. Camu and C. E. Henderson, J. Neurosci. Methods, 44, 59-70 (1992). Spinal cords from E15 rat embryos are dissected sterilely and the spinal notochords are removed. They are then cut up and incubated for 15 minutes at 37° C. in PBS (phosphate buffered saline: 137 mM NaCl, 2.68 mM KCl, 6.45 mM Na2HPO4, 1.47 mM KH2PO4) to which 0.05% of trypsin has been added. The dissociation of the cells is completed by trituration with the end of a 1 ml pipette in the culture medium supplemented with bovine serum albumin (BSA) and with DNAase. The cell suspension is spread onto a band of 6.5% weight/volume metrizamide in L15 medium (sold by Gibco BRL) and centrifuged at 500 g for 15 minutes. The band of the interface containing the motoneurons is recovered. […]
The number of motoneurons is evaluated by counting labeled cells in a surface area of 1.44 cm^2 under a microscope giving a 200-fold magnification. The values are expressed as a number of motoneurons per cm^2 or a percentage of the number of motoneurons present in the cultures maintained with trophic factors (BDNF/NT5 […]). […]

Compound: [NH-]c1c[n+](N2CCOCC2)no1 [SIN-1]
- Number of motoneurons % with respect to the control: 125%
